Results: ChEMBL document CHEMBL4814074 (Bioorg Med Chem Lett, 2021)

Assays:
hERG (KCNH2) = hERG (KCNH2) (Homo sapiens, UniProt Q12809); test: Inhibition of human ERG at 3 uM relative to control
[1] = (§1) Cytotoxicity against African green monkey Vero cells measured after 5 days; format: cell-based; settings: chlorocebus sabaeus, Vero cells; time 5 day
Lassa virus [2] = test: Antiviral activity against pseudotyped Lassa mammarenavirus; format: functional, organism-based; settings: Mammarenavirus lassaense
Junin virus [3] = test: Antiviral activity against pseudotyped Junin virus; format: functional, organism-based; settings: Mammarenavirus juninense
Machupo mammarenavirus = test: Antiviral activity against pseudotyped Machupo virus; format: functional, organism-based; settings: Mammarenavirus machupoense
Vero = test: as §1; format: cell-based; settings: chlorocebus sabaeus, vero, 120 h; time 5 day
Junin virus [4] = test: Antiviral activity against Junin virus by virus yield reduction assay; format: functional, organism-based; settings: Mammarenavirus juninense
CYP2C9 = CYP2C9 (Homo sapiens, UniProt P11712); test: Inhibition of CYP2C9 (unknown origin) at 20 uM; format: ADME
Chain of CYP2C9 (P11712 whole entry): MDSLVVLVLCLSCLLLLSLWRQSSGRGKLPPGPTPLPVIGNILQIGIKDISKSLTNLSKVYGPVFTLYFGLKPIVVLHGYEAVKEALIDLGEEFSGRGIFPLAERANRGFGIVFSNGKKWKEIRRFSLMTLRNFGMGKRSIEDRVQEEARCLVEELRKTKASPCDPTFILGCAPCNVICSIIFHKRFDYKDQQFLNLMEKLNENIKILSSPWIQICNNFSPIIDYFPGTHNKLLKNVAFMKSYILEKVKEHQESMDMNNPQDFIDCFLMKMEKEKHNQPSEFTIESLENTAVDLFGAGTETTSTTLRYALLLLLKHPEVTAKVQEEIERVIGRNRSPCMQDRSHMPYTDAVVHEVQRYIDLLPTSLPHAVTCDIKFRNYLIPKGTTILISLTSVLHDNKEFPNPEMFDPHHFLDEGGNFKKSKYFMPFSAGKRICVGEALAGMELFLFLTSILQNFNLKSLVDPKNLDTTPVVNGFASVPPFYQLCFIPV

CYP2D6 = CYP2D6 (Homo sapiens, UniProt P10635); test: Inhibition of CYP2D6 (unknown origin) at 20 uM; format: ADME
Chain of CYP2D6 (P10635 whole entry): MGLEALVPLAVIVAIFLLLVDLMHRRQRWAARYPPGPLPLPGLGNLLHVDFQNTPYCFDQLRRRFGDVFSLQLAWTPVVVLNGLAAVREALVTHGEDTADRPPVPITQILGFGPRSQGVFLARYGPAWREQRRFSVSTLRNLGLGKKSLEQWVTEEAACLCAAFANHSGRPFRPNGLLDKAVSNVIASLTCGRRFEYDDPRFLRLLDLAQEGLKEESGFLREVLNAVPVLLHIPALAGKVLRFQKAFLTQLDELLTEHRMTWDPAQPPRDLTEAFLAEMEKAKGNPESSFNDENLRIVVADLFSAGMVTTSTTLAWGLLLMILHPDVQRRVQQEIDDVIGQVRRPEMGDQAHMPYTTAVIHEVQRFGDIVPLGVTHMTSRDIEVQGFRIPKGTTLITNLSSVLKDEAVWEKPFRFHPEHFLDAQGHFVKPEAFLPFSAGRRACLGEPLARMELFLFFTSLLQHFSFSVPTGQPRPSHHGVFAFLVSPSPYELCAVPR

CYP3A4 = CYP3A4 (Homo sapiens, UniProt P08684); test: Inhibition of CYP3A4 (unknown origin) at 20 uM; format: ADME
Chain of CYP3A4 (P08684 whole entry): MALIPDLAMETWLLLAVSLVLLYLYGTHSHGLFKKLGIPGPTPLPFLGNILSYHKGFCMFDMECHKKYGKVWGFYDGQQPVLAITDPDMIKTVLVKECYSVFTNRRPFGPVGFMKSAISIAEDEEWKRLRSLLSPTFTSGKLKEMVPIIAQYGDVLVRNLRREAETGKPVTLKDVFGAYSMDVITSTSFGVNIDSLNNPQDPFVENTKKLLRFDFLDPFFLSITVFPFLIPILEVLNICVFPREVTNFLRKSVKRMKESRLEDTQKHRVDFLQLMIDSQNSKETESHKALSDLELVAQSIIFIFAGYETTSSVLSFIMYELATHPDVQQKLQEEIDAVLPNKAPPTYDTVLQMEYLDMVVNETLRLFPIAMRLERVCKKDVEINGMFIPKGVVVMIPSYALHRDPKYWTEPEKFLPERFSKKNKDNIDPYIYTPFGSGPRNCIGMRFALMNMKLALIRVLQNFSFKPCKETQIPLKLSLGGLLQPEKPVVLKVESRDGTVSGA

CYP1A2 = biological target: T1, CYP1A2 (Homo sapiens, UniProt P05177); test: Inhibition of CYP1A2 (unknown origin) at 20 uM; format: ADME
T1 sequence (P05177 whole entry): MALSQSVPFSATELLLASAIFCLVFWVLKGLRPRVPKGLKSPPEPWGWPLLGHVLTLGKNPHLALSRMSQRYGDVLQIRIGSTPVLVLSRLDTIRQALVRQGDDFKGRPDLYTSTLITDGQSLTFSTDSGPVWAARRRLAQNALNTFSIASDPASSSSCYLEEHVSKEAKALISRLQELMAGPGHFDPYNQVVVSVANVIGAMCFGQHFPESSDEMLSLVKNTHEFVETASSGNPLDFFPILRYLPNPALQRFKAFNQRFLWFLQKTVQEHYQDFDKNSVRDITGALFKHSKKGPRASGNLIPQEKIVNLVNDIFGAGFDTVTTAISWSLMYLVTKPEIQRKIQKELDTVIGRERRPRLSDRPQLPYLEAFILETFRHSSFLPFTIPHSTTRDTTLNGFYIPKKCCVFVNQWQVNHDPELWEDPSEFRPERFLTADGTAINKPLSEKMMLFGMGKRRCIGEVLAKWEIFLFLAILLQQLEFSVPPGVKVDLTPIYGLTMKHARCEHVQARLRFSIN

CYP2C19 = CYP2C19 (Homo sapiens, UniProt P33261); test: Inhibition of CYP2C19 (unknown origin) at 20 uM; format: ADME
Chain of CYP2C19 (P33261 whole entry): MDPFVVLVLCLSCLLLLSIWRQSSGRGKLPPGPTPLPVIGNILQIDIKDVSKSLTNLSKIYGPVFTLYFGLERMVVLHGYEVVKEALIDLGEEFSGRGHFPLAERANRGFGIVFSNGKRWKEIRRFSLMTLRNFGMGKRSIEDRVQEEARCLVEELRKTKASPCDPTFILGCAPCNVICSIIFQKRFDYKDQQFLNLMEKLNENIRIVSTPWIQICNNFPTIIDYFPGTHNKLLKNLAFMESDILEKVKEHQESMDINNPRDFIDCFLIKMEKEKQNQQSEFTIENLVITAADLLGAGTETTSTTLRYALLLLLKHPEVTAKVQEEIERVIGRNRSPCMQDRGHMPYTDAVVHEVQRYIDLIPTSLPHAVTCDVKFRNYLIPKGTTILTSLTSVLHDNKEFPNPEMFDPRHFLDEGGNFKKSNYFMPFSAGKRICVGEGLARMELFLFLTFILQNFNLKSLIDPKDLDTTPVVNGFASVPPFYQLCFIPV

Lassa virus [5] = test: Antiviral activity against Lassa virus by plaque reduction assay; format: functional, organism-based; settings: Mammarenavirus lassaense
Lassa virus [6] = test: Antiviral activity against Lassa virus by virus yield reduction assay; format: functional, organism-based; settings: Mammarenavirus lassaense

Chain of hERG (KCNH2) (Q12809 whole entry): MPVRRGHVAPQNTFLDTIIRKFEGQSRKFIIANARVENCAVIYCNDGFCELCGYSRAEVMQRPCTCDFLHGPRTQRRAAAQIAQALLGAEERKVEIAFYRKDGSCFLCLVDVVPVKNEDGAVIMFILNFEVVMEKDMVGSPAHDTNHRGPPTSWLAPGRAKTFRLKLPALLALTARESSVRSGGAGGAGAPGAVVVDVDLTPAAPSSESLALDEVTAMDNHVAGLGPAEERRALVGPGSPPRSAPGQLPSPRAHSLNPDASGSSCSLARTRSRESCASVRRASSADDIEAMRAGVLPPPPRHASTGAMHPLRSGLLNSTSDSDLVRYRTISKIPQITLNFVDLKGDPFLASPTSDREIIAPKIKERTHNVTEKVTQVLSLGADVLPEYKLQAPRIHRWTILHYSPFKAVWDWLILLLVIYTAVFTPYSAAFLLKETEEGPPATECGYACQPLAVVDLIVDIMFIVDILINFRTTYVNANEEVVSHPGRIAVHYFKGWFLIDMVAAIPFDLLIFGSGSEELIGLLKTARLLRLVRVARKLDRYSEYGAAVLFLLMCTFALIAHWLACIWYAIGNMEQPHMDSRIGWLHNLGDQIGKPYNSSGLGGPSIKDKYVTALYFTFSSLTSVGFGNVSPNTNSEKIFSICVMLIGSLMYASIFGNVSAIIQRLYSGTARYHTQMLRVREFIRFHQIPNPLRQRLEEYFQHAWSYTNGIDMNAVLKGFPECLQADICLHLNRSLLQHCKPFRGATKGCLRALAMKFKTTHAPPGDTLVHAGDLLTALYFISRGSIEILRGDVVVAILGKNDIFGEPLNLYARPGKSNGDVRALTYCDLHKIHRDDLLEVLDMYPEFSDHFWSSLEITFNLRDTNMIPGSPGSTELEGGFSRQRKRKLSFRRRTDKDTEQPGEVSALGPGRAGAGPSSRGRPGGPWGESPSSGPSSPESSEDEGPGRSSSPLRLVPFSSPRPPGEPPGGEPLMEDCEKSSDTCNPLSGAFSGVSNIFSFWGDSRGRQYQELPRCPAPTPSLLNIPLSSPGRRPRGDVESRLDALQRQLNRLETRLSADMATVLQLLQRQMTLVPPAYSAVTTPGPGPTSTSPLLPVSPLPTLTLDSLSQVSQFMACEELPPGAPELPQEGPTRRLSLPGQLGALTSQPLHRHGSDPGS

Structure (SMILES) | inhibition at 3 µM (hERG (KCNH2)) | EC50 (Lassa virus [2]) | EC50 (Junin virus [3]) | EC50 (Machupo mammarenavirus) | other results
CC(C)Oc1ccc(-c2ccc3ncn(-c4ccc(OC(C)C)cc4)c3n2)cc1 | < 10% | – | – | – | –
CC(C)Oc1ccc(-c2ccn3cnc(-c4ccc(OC(C)C)cc4)c3c2)cc1 | – | 20.9 nM | 21.8 nM | > 25 nM | CC50 at 120 h [1]: 7540 nM
Cc1c(-c2ccc(OC(C)C)cc2)ccc2ncc(-c3ccc(OC(C)C)cc3)n12 | – | 0.32 nM | 0.17 nM | 0.16 nM | CC50 (Vero): 4190 nM
Cc1cc2nnn(-c3ccc(OC(C)C)cc3)c2cc1-c1ccc(OC(C)C)cc1 | < 10% | 1.05 nM | 0.21 nM | 0.52 nM | EC50 (Junin virus [4]): < 1 nM; EC90 (Junin virus [4]): 2.4 nM
CC(C)Oc1ccc(-c2ccc3nnn(-c4ccc(OC(C)C)cc4)c3c2)cc1 | 17% | – | – | – | –
CC(C)Oc1ccc(-c2cnc3ccc(-c4ccc(OCCN5CCOCC5)cc4)cn23)cc1 | – | > 25 nM | > 25 nM | > 25 nM | –
CC(C)Oc1ccc(-c2ccc3ncc(-c4ccc(OC(C)(C)C)cc4)n3c2)cc1 | 48% | – | – | – | –
Cc1cc2ncc(-c3ccc(OC(C)C)cc3)n2cc1-c1ccc(OC(C)C)cc1 | 14% | – | – | – | inhibition at 20 µM (CYP2C9): < 21%; inhibition at 20 µM (CYP2D6): < 21%; inhibition at 20 µM (CYP3A4): < 21%; inhibition at 20 µM (CYP1A2): < 21%; inhibition at 20 µM (CYP2C19): < 21%
CC(C)Oc1ccc(-c2ccc3ncn(-c4ccc(OC(C)C)cc4)c3c2)cc1 | 30% | – | – | – | –
CC(C)Oc1ccc(-c2cnc3ncc(-c4ccc(OC(C)C)cc4)n3c2)cc1 | 37% | – | – | – | –
CC(C)Oc1ccc(-c2ccc3nnc(-c4ccc(OC(C)C)cc4)n3c2)cc1 | 57% | – | – | – | –
CC(C)Oc1ccc(-c2ccc3cnn(-c4ccc(OC(C)C)cc4)c3c2)cc1 | – | > 25 nM | 14 nM | > 25 nM | –
CC(C)Oc1ccc(-c2cnc3ccc(-c4ccc(C(N)=O)cc4)cn23)cc1 | – | > 25 nM | > 25 nM | > 25 nM | –
CC(C)Oc1ccc(-c2ccc3cnc(-c4ccc(OC(C)C)cc4)n3c2)cc1 | – | > 25 nM | > 25 nM | > 25 nM | –
Cc1cc2ncc(-c3ccc(OC(C)(C)C)cc3)n2cc1-c1ccc(OC(C)C)cc1 | < 10% | 0.68 nM | 0.3 nM | 0.17 nM | inhibition at 20 µM (CYP2C9): < 21%; EC50 (Junin virus [4]): 0.6 nM; EC90 (Junin virus [4]): 1.2 nM; EC50 (Lassa virus [5]): < 3.3 nM; EC90 (Lassa virus [5]): < 3.3 nM; inhibition at 20 µM (CYP2D6): < 21%; inhibition at 20 µM (CYP3A4): < 21%; inhibition at 20 µM (CYP1A2): < 21%; EC50 (Lassa virus [6]): < 0.3 nM; EC90 (Lassa virus [6]): 0.87 nM; inhibition at 20 µM (CYP2C19): < 21%
Cc1cc2ncn(-c3ccc(OC(C)C)cc3)c2cc1-c1ccc(OC(C)C)cc1 | < 10% | 0.65 nM | 0.11 nM | 0.17 nM | inhibition at 20 µM (CYP2C9): < 21%; EC50 (Lassa virus [5]): < 3.3 nM; EC90 (Lassa virus [5]): < 4.2 nM; inhibition at 20 µM (CYP2D6): < 21%; inhibition at 20 µM (CYP3A4): 44%; inhibition at 20 µM (CYP1A2): < 21%; EC50 (Lassa virus [6]): 1.2 nM; EC90 (Lassa virus [6]): 2.1 nM; inhibition at 20 µM (CYP2C19): < 21%
CC(C)Oc1ccc(-c2cnc3ccc(-c4ccc(OC(C)C)cc4F)cn23)cc1 | – | > 25 nM | > 25 nM | > 25 nM | –
Cc1cc2ncn(-c3ccc(OC(C)(C)C)cc3)c2cc1-c1ccc(OC(C)(C)O)cc1 | < 10% | 4 nM | 1 nM | 0.12 nM | inhibition at 20 µM (CYP2C9): < 21%; EC50 (Junin virus [4]): 0.9 nM; EC90 (Junin virus [4]): 6.2 nM; EC50 (Lassa virus [5]): < 3.3 nM; EC90 (Lassa virus [5]): < 3.3 nM; inhibition at 20 µM (CYP2D6): < 21%; inhibition at 20 µM (CYP3A4): < 21%; inhibition at 20 µM (CYP1A2): < 21%; EC50 (Lassa virus [6]): < 0.3 nM; EC90 (Lassa virus [6]): < 0.3 nM; inhibition at 20 µM (CYP2C19): < 21%
CC(C)Oc1ccc(-c2ccc3ncc(-c4ccc(OC(C)C)cc4)n3c2)cc1 | 89% | – | – | – | –
CC(C)Oc1ccc(-c2ccc3ccn(-c4ccc(OC(C)C)cc4)c3c2)cc1 | – | > 25 nM | 0.89 nM | 20.6 nM | –
